Entries after “also recorded” stand apart in the source; their conditions may differ.
Tests used:
[1] = test system: acrolein-exposed striatal synaptosomes; experiment: Protection against acrolein-induced inhibition of 3H-dopamine transport in striatal synaptosomes; assay type: cell-based, rat; conditions: test compound 500 μM, Krebs buffer pH 7.4, 30° C., 15 mins (FIG. 5A)
whole animal = conditions: cited from earlier work
[2] = Kinetic assay of acrolein-induced N-acetyl cysteine (NAC) sulfhydryl loss (DTNB method); conditions: for rate of sulfhydryl loss (mean rate±SE): NAC + acrolein 150 μM + test compound 50 μM co-incubated, Krebs buffer pH 7.4, 30° C.; for sulfhydryl (NAC) protection, pre-incubation: acrolein pre-incubated with test compound, NAC added one hour later
Excerpt: As an index of cytoprotection, these studies focused on the abilities of 1,3-dicarbonyl compounds to prevent electrophile-induced loss of protein and non-protein sulfhydryl groups. This experimental focus is based on substantial evidence that soft electrophiles, like acrolein, produce toxicity by forming Michael-type adducts with soft nucleophilic thiolate (anionic sulfhydryl) groups on functionally critical proteins^9, 17, 22, 56, 57 (reviewed in^28, 58, 62, 77, 94). […] To test this hypothesis, a determination was made of the ability of AcAc and other structurally related enol analogs to prevent sulfhydryl (nucleophile) adduction by acrolein (electrophile)^56. […] Free sulfhydryl concentrations were determined over time (up to 15 mins) by the DTNB method of LoPachin et al.^52.
Therefore, as a kinetic index of competitive thiol protection by enolate sequestration, the relative in vitro abilities of 1,3-dicarbonyl compounds and phloretin to slow the rate of acrolein-induced sulfhydryl loss were measured.

MN9D cells [3] = experiment: Cell viability (trypan blue) in H2O2-exposed MN9D cultures; conditions: for protection against H2O2-induced cell death: test compound 750 μM (phloretin 100 μM)
Protocol: (§1) As a more complex biological model, a determination was made of the relative abilities of the 1,3-dicarbonyls to protect MN9D cells, a dopaminergic cell line, from acrolein- (FIG. 6) or hydrogen peroxide (H2O2)-induced cell death (FIG. 7). Briefly, two days after plating, cells were incubated with AcAc (750 μM) for one hr followed by exposure to graded concentrations of either acrolein (0.50-150 μM×24 hrs) or H2O2 (50-750 μM×24 hrs). Cell viability was determined by trypan blue (0.1%) exclusion. Living cells were counted in a hemocytometer and total cells per dish were calculated.
(§2) This system represents a more complete model of oxidative stress since the hydroxyl radical formed from intracellular H2O2 during the Fenton reaction, subsequently mediates the generation of toxic aldehyde by-products such as acrolein and 4-hydroxy-2-nonenal (HNE).

[4] = Ferrous ion chelation (method of Dairam et al.)
[5] = pKa and enolate ionization of enol compounds; assay type: physicochemical
MN9D cells [6] = experiment: Cell viability (trypan blue) in acrolein-exposed MN9D cultures; conditions: for protection against acrolein-induced cell death (words): pre-incubation 60 minutes, 750 μM each (phloretin 100 μM)
Protocol: as §1

[7] = Cell viability (trypan blue) in H2O2-exposed MN9D cultures; conditions: mouse, MN9D cells
Protocol: as §1, §2

[8] = test system: control striatal synaptosomes; experiment: In vitro toxicity: radiolabeled dopamine (DA) membrane transport in control striatal synaptosomes; conditions: FIG. 4
MN9D cells [9] = experiment: Cytotoxicity of test compound alone in MN9D cultures; conditions: 100 μM
[10] = as above; conditions: mouse, MN9D cells
[11] = Free radical scavenging (DPPH absorbance method of Ak and Gulcin)
Protocol: The relative abilities of selected 1,3-dicarbonyl compounds to scavenge free radicals were determined using the spectrophotometric method of Ak and Gulcin (2008)^4 that measures changes in the absorbance of the 2,2-diphenyl-1-picrylhydrazyl radical.

## CC(=O)CC(C)=O [AcAc, acetylacetone]
[1]
  change in acrolein IC50 for inhibition of DA transport: largest increases in the acrolein IC50
Whole animal
  LD50: 175 mg/kg
[2]
  rate of sulfhydryl loss (mean rate±SE): −24.9±5 nmol SH sec^−1
  sulfhydryl (NAC) protection, pre-incubation: modestly effective
[2]; pH 7.4
  rate of acrolein-induced sulfhydryl (NAC) loss (mean rate±95% confidence interval): -24.9 ± 3.6 nmol/s
[2]; pH 9.0
  rate of acrolein-induced sulfhydryl (NAC) loss: -2.43 ± 2.2 nmol/s
  thiol protection against acrolein at elevated pH: substantially elevated; also recorded: completely protective
MN9D cells [3]; FIG. 7
  protection against H2O2-induced cytotoxicity: 3 fold
MN9D cells [3]; graded concentrations: 2-ACP 250-750 μM, AcAc 500-1500 μM (range-finding 50-1000 μM)
  concentration dependence of protection against H2O2: concentration-dependent protection; also recorded: significant increases in the LC50 of H2O2
MN9D cells [3]
  protection against H2O2-induced cell death: modestly effective
[4]; read-out: concentration at which 50% Fe^2+ chelation occurs
  EC50: 909 µM
[5]
  pKa: 8.9
[5]; pH 9.0 relative to pH 7.4
  increase in enolate concentration: ~100 fold
MN9D cells [6]; graded concentrations: 2-ACP 100-750 μM, AcAc 250-1000 μM (range-finding 50-1000 μM)
  concentration dependence of protection against acrolein: concentration-dependent protection; also recorded: significant increases in the LC50
MN9D cells [6]
  protection against acrolein-induced cell death (words): significantly increased the acrolein LC50
MN9D cells [6]; test compound 750 μM pre-incubation
  increase in acrolein LC50: ~7 fold

## OO [H2O2, hydrogen peroxide]
[7]
  CC50 at 24 h: 254 µM

## O=C(CCc1ccc(O)cc1)c1c(O)cc(O)cc1O [phloretin, reference compound]
[8]
  synaptosomal toxicity of compound alone, DA transport (words, IC50 magnitude): relatively significant in vitro toxicity; also recorded: significant synaptosomal toxicity
MN9D cells [9]
  MN9D cell death / cell loss by compound alone: ~50%
MN9D cells [9]; listed as Phloretin
  MN9D cell death / cell loss by compound alone: 42%
[10]
  CC50: 362 µM
[2]
  rate of sulfhydryl loss (mean rate±SE): −1.9±0.7 nmol SH sec^−1
  sulfhydryl (NAC) protection, pre-incubation: significant thiol protection
[2]; all chemicals added simultaneously
  sulfhydryl (NAC) protection, co-incubation: only marginally protective
MN9D cells [3]
  protection against H2O2-induced cell death: potentiated H2O2 toxicity
[4]
  Fe^2+ chelating activity: little, if any, Fe^2+ chelating activity
[11]
  DPPH radical scavenging: relatively weak DPPH. scavengers
[5]
  pKa: 7.3
MN9D cells [6]
  protection against acrolein-induced cell death (words): did not protect
MN9D cells [6]; listed as Phloretin
  protection against acrolein-induced cell death (words): did not provide cytoprotection

Reference: US8835510B2, “Methods and compositions for treating conditions mediated by oxidative stress or electrophilic environmental toxins” (priority 2010, dated 2014)
